Measurements taken from US6949545B2, “Heterocyclic side chain containing, n-substituted metalloprotease inhibitors” (The Procter & Gamble Company, priority 2000, dated 2005).

Tested on: asthma sufferer
Assay: Example E: inhalation aerosol for asthma
Type: in vivo, human
Conditions: 5.0% w/v aerosol, 0.01 mL sprayed into the mouth while inhaling
Method: An inhalation aerosol composition, according to the present invention, is made comprising: An asthma sufferer sprays 0.01 mL via a pump actuator into the mouth while inhaling.

In the case of `COc1ccc(-c2ccc(S(=O)(=O)N(C)C(C(=O)O)C3CCN(CCc4ccccc4)CC3)cc2)cc1` (stereo not shown) [Example 17, [(4′-Methoxy-biphenyl-4-sulfonyl)-methyl-amino]-(1-phenethyl-piperidin-4-yl)-acetic Acid], the asthma symptoms is reported as “Asthma symptoms are diminished”.
